Data set [1] deals with T1, Insulin-like Growth Factor receptor (IGFR) (Homo sapiens, UniProt P08069).
T1 construct: expressed in transfected cells; host or cells: PEAK rapid cells, transient transfection, Triton X-100 lysate
Description: IGFR binding assay (microtiter plate antibody assay). The conditions noted are these: relative to IGF-1. As to the method:
Receptor-Binding Assays. […] Subsequent to incubation, mixtures are diluted with 1 ml of ice-cold buffer and centrifuged (10,000 g) for 5 min at 4° C. The supernatant will then be removed by aspiration, and the membrane pellet counted for radioactivity. […] Binding data were analyzed by a two-site sequential model. A corresponding microtiter plate antibody assay using the IGF Type I receptor was employed to assess cross-binding to this homologous receptor.
DNA for transfection was prepared according to the method of Mynarcik et al. (J. Biol. Chem., 1997, 272, pp 18650-18655). The receptor cDNAs were expressed transiently in PEAK rapid cells using polyethyleneimine. Cells were harvested by lysis in 0.15M NaCl and 0.1M Tris (pH 8) containing 1% (v/v) Triton X-100 and protease inhibitor cocktail three days post-transfection. Lysates were stored at −80° C. until assay. Receptor-binding assays were performed as described by Mynarcik. Microtiter strip plates (Nunc Maxisorb) were incubated overnight at 4° C. with anti-FLAG IgG ([…] of a […] solution in PBS). […] Binding data were analyzed by a two-site sequential model with homologous or heterologous labeled and unlabeled ligands to obtain dissociation constants as described by Whittaker et al. (J. Biol. Chem., 2001, 276, pp 43980-43986).

Data set [2] deals with human breast cancer cell line MCF-7. Description: Mitogenicity in cell culture (cell growth, DNA content). The format is cell-based. To be noted: MCF-7, 3-days exposure, cell number and DNA content.
Description: Growth media were supplemented with 10% fetal bovine serum (FBS) (Invitrogen Life Technologies, Inc., Carlsbad, AA), penicillin (100 U/ml) and streptomycin (100 ug/mL). Approximately 1.0×10^5 cells were seeded into 35-mm dishes and cultured until subconfluent. Two assays were employed: (i) Cell-growth curves were determined by hemocytometry. Approximately 5×10^4 were seeded into a 24-well plate and cultured for 24 h. After 24 hour, the medium was removed and replaced with fresh medium containing 0.1% BSA. […] Cell numbers were determined after 3-days exposure to the hormones. (ii) Cell DNA content was determined using a DNA measurement kit (Invitrogen) following 3-days exposure to the hormones in cell culture as above.
For a further data set, the system named is diabetic Lewis rats. Description: Blood glucose lowering in streptozotocin-diabetic rats. The format is in vivo, rat. The conditions noted are these: streptozotocin-diabetic male Lewis rats, 1.5 U/kg subcutaneously, 0-90 min.
Data set [3] can be described thus: Thermodynamic stability by guanidine denaturation. It counts as physicochemical. To be noted: 37° C. and pH 7.4. The method, then:
Circular Dichroism—Samples were dissolved in either 10 mM phosphate and 100 mM KCl (pH 7.4) or 0.01 N HCl (pH 2.0) at a protein concentration of 25 μM. To remove particulate matter and protein aggregates, samples were filtered ([…]; Satorius, Goetlingen, Germany). Spectra, acquired with an Aviv spectropolarimeter (Aviv Biomedical, Inc., Lakewood, N.J.), were normalized. […]

Data set [4] is described as follows: Fibrillation assay (thioflavin T fluorescence). To be noted: zinc free, 60 μM, pH 7.4, 37° C., tilting table. It counts as physicochemical.
Description: Samples (in triplicate) were placed in sealed glass vials and placed on an automated tilting table at 37° C. At successive times aliquots were withdrawn and analyzed by a thioflavin T (ThT) fluorescence spectroscopy assay to determine the onset of fibrillation as follows.
Thioflavin T (ThT) was made 1 mM in double-distilled water and stored at 4° C. in the dark. To monitor fibrillation, 10-μl aliquots of samples were obtained at indicated time points and were mixed with 3 ml of ThT assay buffer (5 μM ThT in 50 mM Tris-HCl (pH 7.5) and 100 mM NaCl). Fluorescence measurements were performed using an Aviv spectrofluorometer in 1-cm quartz cuvettes. Emission spectra were collected from 470 to 500 nm following excitation at 450 nm; the integration time was 1 s. ThT in buffer without protein was used as baseline. The fibrillation lag time is defined as the time required to observe twofold enhancement in ThT emission. The threshold of twofold-enhanced ThT fluorescence is followed a rapid increase in turbidity associated with elongation of mature fibrils and a further increase in ThT fluorescence.

“Also recorded” adds a separate entry of the source.

T1 sequence (P08069 31-736 limits assumed): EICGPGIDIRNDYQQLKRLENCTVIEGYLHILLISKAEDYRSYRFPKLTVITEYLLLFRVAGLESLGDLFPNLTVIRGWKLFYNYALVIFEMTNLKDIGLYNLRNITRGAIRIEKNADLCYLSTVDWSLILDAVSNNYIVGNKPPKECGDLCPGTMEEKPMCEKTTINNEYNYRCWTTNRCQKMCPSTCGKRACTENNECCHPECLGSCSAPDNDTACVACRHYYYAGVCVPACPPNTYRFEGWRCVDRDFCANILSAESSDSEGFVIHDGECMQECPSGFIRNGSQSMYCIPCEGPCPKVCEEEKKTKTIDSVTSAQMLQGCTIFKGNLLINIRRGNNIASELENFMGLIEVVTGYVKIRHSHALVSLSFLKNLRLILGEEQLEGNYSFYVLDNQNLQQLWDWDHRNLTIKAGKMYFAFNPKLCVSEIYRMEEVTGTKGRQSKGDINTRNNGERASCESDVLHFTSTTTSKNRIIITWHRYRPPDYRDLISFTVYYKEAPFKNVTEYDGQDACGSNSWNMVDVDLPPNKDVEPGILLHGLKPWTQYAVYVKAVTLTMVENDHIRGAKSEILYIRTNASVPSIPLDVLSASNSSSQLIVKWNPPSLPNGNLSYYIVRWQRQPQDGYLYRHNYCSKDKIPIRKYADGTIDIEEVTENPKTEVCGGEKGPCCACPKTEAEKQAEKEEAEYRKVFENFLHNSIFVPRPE
T1 sequence (P08069 741-1367 partner limits assumed): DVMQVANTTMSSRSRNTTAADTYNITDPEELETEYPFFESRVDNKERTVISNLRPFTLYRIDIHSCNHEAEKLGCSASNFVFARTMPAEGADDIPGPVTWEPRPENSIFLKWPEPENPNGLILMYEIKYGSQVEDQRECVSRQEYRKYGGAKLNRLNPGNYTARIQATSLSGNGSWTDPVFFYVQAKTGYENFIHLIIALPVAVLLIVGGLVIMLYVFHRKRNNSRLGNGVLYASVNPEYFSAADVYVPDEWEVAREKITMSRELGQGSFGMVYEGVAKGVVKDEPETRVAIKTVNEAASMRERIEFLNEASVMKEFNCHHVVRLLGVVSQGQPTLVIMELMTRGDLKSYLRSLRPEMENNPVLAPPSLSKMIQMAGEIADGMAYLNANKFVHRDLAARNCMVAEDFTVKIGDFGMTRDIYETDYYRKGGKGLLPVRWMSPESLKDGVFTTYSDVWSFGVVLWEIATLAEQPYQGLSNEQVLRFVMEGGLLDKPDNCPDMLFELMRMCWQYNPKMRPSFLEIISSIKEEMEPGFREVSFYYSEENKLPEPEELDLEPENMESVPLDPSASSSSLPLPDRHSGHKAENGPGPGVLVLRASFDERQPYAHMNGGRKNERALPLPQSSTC
Description for diabetic Lewis rats: Male Lewis rats (˜250 g body weight) were rendered diabetic with streptozotocin. […] Rats were injected subcutaneously at time=0 with 1.5 U/kg body weight in 100 μl of diluent. Blood was obtained from clipped tip of the tail at time 0 and every 10 minutes up to 90 min. Blood glucose was measured using a Hypoguard Advance Micro-Draw meter.

With IGF-I, the “IGFR Relative Affinity” value in data set [1] worked out at 1.
Take “57mer single-chain analogue: 57-mer single-chain insulin, SEQ ID NO: 26; His^A8, Asp^B10, Asp^B28, Pro^B29 substitutions; six-residue linker GGGPRR between B30 and A1”: the mitogenicity entry in data set [2] (listed as 57 mer single-chain insulin analogue) is given as “indistinguishable from human insulin; also recorded: significantly less mitogenic than IGF-I”. Also, the “rate of decrease of blood glucose concentration” value in the data set with diabetic Lewis rats is 62.0±16.3 mg/dL per h.
“Corresponding two-chain analogue: two-chain insulin analogue with His^A8, Asp^B10, Asp^B28, Pro^B29 substitutions; SEQ ID NOS: 28 and 29”: in data set [2], the mitogenicity result is “intermediate between the single-chain insulin analogue”. Besides, the ΔGu in data set [3] turned out to be 3.6 kcal/mol. In addition, the “Lag time (days ± 10%)” value in data set [4] is 70 ± 5 days. Besides, the “rate of decrease of blood glucose concentration” value in the data set on diabetic Lewis rats turned out to be 53.2±11.7 mg/dL per h.

(Values after US8501440B2 (Case Western Reserve University, priority 2006, dated 2013).)
